# Reference: patent US8710003B2, “Treatment of diabetes with milk protein hydrolysate” (Nestec S.A., priority 1999, dated 2014)
# System: NCI-H716 cells
# Assay: Release of active GLP-1 by NCI-H716 cells
# Assay type: cell-based, human
# Conditions: alpha-lactose dose equivalent to that contained in the wheys, 2 h incubation, active GLP-1 only
# Description: Cells were grown in suspension at 37° C., 5% CO2. The culture medium consisted of RPMI 1640 supplemented with 10% FBS, 2 mM L-glutamine, 100 IU/ml penicillin and 100 μg/ml streptomycin. […] Cells were, therefore, seeded in dishes coated with […] ® (Becton Dickinson, Bedford, Mass., USA) two days before experiments.
# Two days before experiments, 1×10^6 cells were seeded in 12 well culture plates coated with […] ®. On the day of the experiment, the supernatant was replaced by Krebs-Ringer Bicarbonate Buffer (KRB) containing 0.2% wt/vol BSA with or without CGMP. Cells were incubated for 2 h at 37° C. Supernatants were collected with the addition of 50 μg/ml PMSF and frozen at −80° C. for subsequent analysis by radioimmunoassay (RIA) of GLP-1. Cells were scraped with a rubber policeman and homogenization buffer [1 N HCl containing 5% (v/v) HCOOH, 1% (v/v) trifluoroacetic acid (TFA), and 1% (v/v) NaCl] and sonicated for 15 s. […] The intraassay coefficient of variance was 2.28%.
# Here, a kit was used that only measures the active form of GLP-1, i.e., GLP-1 (7-37) or GLP-1 (7-36 amide), but not the degraded form, GLP-1 (9-36 amide), as was included in the data for FIGS. 1-3.
structure (smiles),measurement,value
OC[C@H]1O[C@@H](O[C@H]2[C@H](O)[C@@H](O)[C@@H](O)O[C@@H]2CO)[C@H](O)[C@@H](O)[C@H]1O [alpha-lactose],GLP-1 secretion compared to the control,144±32%
